Laboratory results as given in patent US5712300A, “Hydroxamic acid derivatives useful for the treatment of diseases related to connective tissue degradation” (priority 1997, dated 1998).

Experiments:
Type in all cases: biochemical
[1] = target: T1, Collagenase (Homo sapiens, UniProt P03956); test: MMP inhibition by particle concentration fluorescence technique (collagenase); details: pH 7.5; 15 min enzyme preincubation; substrate 1-3 h at room temperature; read-out: MMP Inhibition Constants, Collagenase Ki
T1 sequence (P03956 100-469): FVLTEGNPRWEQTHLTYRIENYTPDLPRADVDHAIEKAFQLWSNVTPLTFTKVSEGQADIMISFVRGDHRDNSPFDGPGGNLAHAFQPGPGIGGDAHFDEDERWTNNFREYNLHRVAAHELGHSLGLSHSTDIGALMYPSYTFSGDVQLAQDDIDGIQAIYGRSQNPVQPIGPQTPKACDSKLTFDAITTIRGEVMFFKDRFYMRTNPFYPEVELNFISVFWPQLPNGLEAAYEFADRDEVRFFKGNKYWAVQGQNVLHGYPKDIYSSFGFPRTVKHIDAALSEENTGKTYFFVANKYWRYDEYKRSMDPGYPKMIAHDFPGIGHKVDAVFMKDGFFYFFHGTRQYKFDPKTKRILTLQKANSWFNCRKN
In short: (§1)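 Compound serially diluted two-fold in 50 mM Tris-HCl pH 7.5, 150 mM NaCl, preincubated 15 min with activated enzyme at room temperature. Fluorescein/biotin-tagged substrate then added for 1-3 hours in the dark. Intact substrate captured on avidin-coated particles; fluorescence signal indicates inhibition.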

[2] = target: Gelatinase; test: MMP inhibition by particle concentration fluorescence technique (gelatinase); details: pH 7.5; 15 min enzyme preincubation; substrate 1-3 h at room temperature; read-out: MMP Inhibition Constants, Gelatinase Ki
In short: as §1

[3] = target: Stromelysin (Homo sapiens, UniProt P08254); test: MMP inhibition by particle concentration fluorescence technique (stromelysin); details: pH 7.5; 15 min enzyme preincubation; substrate 1-3 h at room temperature; read-out: MMP Inhibition Constants, Stromelysin Ki
Chain of Stromelysin (P08254 100-477): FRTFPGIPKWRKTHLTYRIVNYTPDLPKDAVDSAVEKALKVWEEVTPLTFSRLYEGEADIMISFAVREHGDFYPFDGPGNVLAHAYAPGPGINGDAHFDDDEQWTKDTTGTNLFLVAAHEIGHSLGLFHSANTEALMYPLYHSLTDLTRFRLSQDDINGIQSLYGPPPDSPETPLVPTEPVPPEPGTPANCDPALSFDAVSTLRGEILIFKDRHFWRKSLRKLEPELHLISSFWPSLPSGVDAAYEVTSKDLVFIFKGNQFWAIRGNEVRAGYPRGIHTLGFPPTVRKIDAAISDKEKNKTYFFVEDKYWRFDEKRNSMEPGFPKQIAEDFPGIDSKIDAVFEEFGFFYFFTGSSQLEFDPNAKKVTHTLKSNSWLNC
In short: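 Fluorescein- and biotin-labelled substrate captured on avidin particles after reaction; intact, uncleaved substrate retains fluorescence, so signal rises with inhibition. Activated enzyme incubated with two-fold serial compound dilutions 15 minutes at room temperature.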

| Ki [1] [nM] | Ki [2] [nM] | Ki [3] [nM] | SMILES |
| --- | --- | --- | --- |
| 2.8 | 2.3 | 14 | CC(C)C[C@@]1(CC(=O)NO)CCN([C@@H](Cc2ccccc2)C(=O)Nc2ccncc2)C1=O [Example 41, [S-(R*,R*)]-N^3 -Hydroxy-3-(2-methylpropyl)-2-oxo-α^1-(phenylmethyl)-N^1-(4-pyridinyl)-1,3-pyrrolidinediacetamide] |
| 2.44 | 5.4 | 25.5 | CC(C)C[C@@]1(CC(=O)NO)CCN([C@@H](Cc2ccccc2)C(=O)Nc2ccc(F)cc2)C1=O [Example 42, [S-(R*,R*)]-N^1-(4-Fluorophenyl)-N^3-hydroxy-3-(2-methylpropyl)-2-oxo-α^1-(phenylmethyl)-1,3-pyrrolidinediacetamide] |
| 2.36 | 2.3 | 1800 | CC(C)C[C@@]1(CC(=O)NO)CCN([C@@H](Cc2ccccc2)C(=O)NC2CCN(Cc3ccccc3)CC2)C1=O [Example 43, [S-(R*,R*)]-N^3 -Hydroxy-3-(2-methylpropyl)-2-oxo-α^1-(phenylmethyl)-N^1-[1-(phenylmethyl)-4-piperdinyl]-1,3-pyrrolidinediacetamide] |
| 20.2 | 11 | 4000 | CC(C)C[C@@]1(CC(=O)NO)CCN([C@@H](Cc2ccccc2)C(=O)NC2CCNCC2)C1=O [Example 44, [S-(R*,R*)]-N^3 -Hydroxy-3-(2-methylpropyl)-2-oxo-α^1-(phenylmethyl)-N^1-(4-piperdinyl)-1,3-pyrrolidinediacetamide] |
| 23.5 | 17 | 1010 | CC(C)C[C@@]1(CC(=O)NO)CCN([C@@H](Cc2ccccc2)C(=O)NCc2ccncc2)C1=O [Example 45, [S-(R*,R*)]-N^3 -Hydroxy-3-(2-methylpropyl)-2-oxo-α^1-(phenylmethyl)-N^1-(4-pyridinylmethyl)-1,3-pyrrolidinediacetamide] |
| 35 | 40 | 2100 | CC(C)C[C@@]1(CC(=O)NO)CCN([C@@H](Cc2ccccc2)C(=O)NCc2ccc(F)cc2)C1=O [Example 46, [S-(R*,R*)]-N^1-(4-Fluorophenylmethyl)-N^3-hydroxy-3-(2-methylpropyl)-2-oxo-α^1-(phenylmethyl)-1,3-pyrrolidinediacetamide] |
| 81.5 | 85.3 | 868 | CNC(=O)[C@H](CCc1ccccc1)N1CC[C@](CC(=O)NO)(CC(C)C)C1=O [Example 47, [S-(R*,R*)]-N^3 -Hydroxy-N^1-methyl-3-(2-methylpropyl)-2-oxo-α^1-(2-phenylethyl)-1,3-pyrrolidinediacetamide] |
| 72 | 160 | 385 | CC(C)C[C@@]1(CC(=O)NO)CCN([C@@H](CCc2ccccc2)C(=O)NCc2ccccc2)C1=O [Example 48, [S-(R*,R*)]-N^3 -Hydroxy-3-(2-methylpropyl)-2-oxo-α^1-(2-phenylethyl)-N^1-(phenylmethyl)-1,3-pyrrolidinediacetamide] |
| 85 | 61 | 138 | CC(C)C[C@@H](C(=O)Nc1ccccn1)N1CC[C@](CC(=O)NO)(CC(C)C)C1=O [Example 49, [S-(R*,R*)]-N^3 -Hydroxy-α^1,3-bis(2-methylpropyl)-2-oxo-N^1-2-pyridinyl-1,3-pyrrolidinediacetamide] |
| 6.06 | 17 | 283 | CNC(=O)[C@H](C1CCCCC1)N1CC[C@](CC(=O)NO)(CC(C)C)C1=O [Example 50, [S-(R*,R*)]-α^1 -Cyclohexyl-N^3-hydroxy-N^1-methyl-3-(2-methylpropyl)-2-oxo-1,3-pyrrolidinediacetamide] |
| 42.2 | 23 | 84 | CC(C)C[C@@]1(CC(=O)NO)CCN([C@H](C(=O)Nc2ccccn2)C2CCCCC2)C1=O [Example 51, [S-(R*,R*)]-α^1 -Cyclohexyl-N^3-hydroxy-3-(2-methylpropyl)-2-oxo-N^1-2-pyridinyl-1,3-pyrrolidinediacetamide] |
| 1.3 | 1.1 | 187 | CNC(=O)[C@H](Cc1ccccc1)N1CC[C@](CC(=O)NO)(CC2CCCC2)C1=O [Example 52, [S-(R*,R*)]-3-(Cyclopentylmethyl)-N^3-hydroxy-N^1-methyl-2-oxo-α^1-(phenylmethyl)-1,3-pyrrolidinediacetamide] |
| 0.69 | 1.06 | 10.5 | CNC(=O)[C@H](Cc1ccccc1)N1CC[C@@](CC(C)C)([C@H](CCNC(=O)c2ccccc2)C(=O)NO)C1=O [Example 53, [3S-[1(R*),3R*(R*)]]-α^3-[2-(Benzoylamino)ethyl]-N^3-hydroxy-N^1-methyl-3-(2-methylpropyl)-2-oxo-α^1-(phenylmethyl)-1,3-pyrrolidinediacetamide] |
| 76 | 70 | 700 | CC(C)C[C@@]1(CC(=O)NO)CCN([C@@H](Cc2ccccc2)C(=O)NCCN2CCOCC2)C1=O [Example 54, [S-(R*,R*)]-N^3 -Hydroxy-3-(2-methylpropyl)-N^1-[2-(4-morpholinyl)ethyl]-2-oxo-α^1-(phenylmethyl)-1,3-pyrrolidinediacetamide] |
| 750 | 211 | 1900 | CC(C)C[C@@]1(CC(=O)NO)CCN([C@@H](Cc2ccccc2)C(=O)N2CCOCC2)C1=O [Example 55, [S-(R*,R*)]-N-Hydroxy-3-(2-methylpropyl)-1-[2-(4-morpholinyl)-2-oxo-1-(phenylmethyl)ethyl]-2-oxo-3-pyrrolidineacetamide] |
| 12 | 9.5 | 75 | CC(C)C[C@@]1(CC(=O)NO)CCN([C@@H](Cc2ccccc2)C(=O)Nc2ccccn2)C1=O [Example 57, [S-(R*,R*)]-N^3 -Hydroxy-3-(2-methylpropyl)-2-oxo-α^1-(phenylmethyl)-N^1-2-pyridinyl-1,3-pyrrolidinediacetamide] |
| 18 | 12.3 | 19 | CC(C)C[C@@]1(CC(=O)NO)CCN([C@H](C(=O)Nc2ccc(F)cc2)C2CCCCC2)C1=O [Example 60, [S-(R*,R*)]-α^1 -Cyclohexyl-N^1-(4-fluorophenyl)-N^3-hydroxy-3-(2-methylpropyl)-2-oxo-1,3-pyrrolidinediacetamide] |
| 55000 | 310 | 369 | CCCOc1ccc2c(c1)C(=O)N(CCC(C(=O)NO)C1(CC(C)C)CCN(CCc3ccccc3)C1=O)C2=O (stereo not drawn) [Example 62, N-Hydroxy-3-(2-methylpropyl)-2-oxo-1-(2-phenylethyl)-α-[2-(5-propyloxy-1,3-dihydro-1,3-dioxo-2H-isoindol-2-yl)ethyl]-3-pyrrolidineacetamide] |
| 1500 | 32 | 58 | CC(C)C[C@@]1([C@@H](CCN2C(=O)c3ccc(F)cc3C2=O)C(=O)NO)CCN(CCc2ccccc2)C1=O [Example 63, [R-(R*,S*)]-5-Fluoro-1,3-dihydro-N-hydroxy-α-[3-(2-methylpropyl)-2-oxo-1-(2-phenylethyl)-3-pyrrolidinyl]-1,3-dioxo-2H-isoindole-2-butanamide] |
| 735 | 49 | 107 | CC(C)CC1(C(CCN2C(=O)c3cc(F)c(F)cc3C2=O)C(=O)NO)CCN(CCc2ccccc2)C1=O (stereo not drawn) [Example 64, α-[2-(5,6-Difluoro-1,3-dihydro-1,3-dioxo-2H-isoindol-2-yl)ethyl]-N-hydroxy-3-(2-methylpropyl)-2-oxo-1-(2-phenylethyl)-3-pyrrolidineacetamide] |
| 26 | 21 | 52 | CC(C)C[C@@]1([C@@H](CCNC(=O)c2cccc(F)c2)C(=O)NO)CCN(CCc2ccccc2)C1=O [Example 74, [R-(R*,S*)-α-[2-[(3-Fluorobenzoyl)amino]ethyl]-N-hydroxy-3-(2-methylpropyl)-2-oxo-1-(2-phenylethyl)-3-pyrrolidineacetamide] |
| 230 | 4.88 | 91 | CC(C)C[C@@]1([C@@H](CCN2Cc3ccc(F)cc3C2=O)C(=O)NO)CCN(CCc2ccccc2)C1=O [Example 87, [R-(R*,S*)]-6-Fluoro-1,3-dihydro-N-hydroxy-α-[3-(2-methylpropyl)-2-oxo-1-(2-phenylethyl)-3-pyrrolidinyl]-1-oxo-2H-isoindole-2-butanamide] |
| 326 | 62 | 288 | CC(C)C[C@@]1([C@@H](CCN2Cc3cc(F)ccc3C2=O)C(=O)NO)CCN(CCc2ccccc2)C1=O [Example 88, [R-(R*,S*)]-5-Fluoro-1,3-dihydro-N-hydroxy-α-[3-(2-methylpropyl)-2-oxo-1-(2-phenylethyl)-3-pyrrolidinyl]-1-oxo-2H-isoindole-2-butanamide] |
| 12.7 | 0.98 | 8.7 | O=C(NCC[C@@H](C(=O)NO)[C@]1(CCCO)CCN(CCc2ccccc2)C1=O)c1cccc(F)c1 [Example 96, [R-(R*,S*)]-α-[2-[(3-Fluorebenzoyl)amino]ethyl]-N-hydroxy-3-(3-hydroxypropyl)-2-oxo-1-(2-phenylethyl)-3-pyrrolidineacetamide] |
